Laboratory results: PubChem BioAssay AID1996
≈ marks a conversion by molar mass, not a printed value.

settings: buffer; pH 7.4; 200.0 µM

| Compound | solubility kinetic [µg/mL] |
| --- | --- |
| COCCSc1ccccc1C(=O)Nc1cc(C)cc(C)c1 | 41.2 (≈ 131 µM) |
| O=C(Cn1cccc1C(=O)c1ccccc1)NCc1ccc(Cl)cc1 | 1.1 (≈ 3.12 µM) |
| O=C(O)CCCn1c(=O)c2cccn2c2ccc(F)cc21 | > 43.2 |
| CCOC(=O)c1ccc(NC(=O)C2C3CCCCC32)cc1 (stereo not given) | < 0.6 |
| O=C(CCl)N1CCN(C(=O)C2COc3ccccc3O2)CC1 (stereo not given) | > 48.7 |
| Cc1cc(OCCCN2CCCC2)ccc1Cl | 26.8 (≈ 106 µM) |
| Cc1cc(C(=O)N2CC(C)CC(C)C2)c(C)o1 (stereo not given) | 30.1 (≈ 128 µM) |
| COc1ccc(-n2cc(-c3ccccc3)c3c(=S)nc[nH]c32)cc1 | 0.6 (≈ 1.8 µM) |
| O=C(NC(c1ccccc1)c1ccccc1)c1ccc(CO)cc1 | 44.2 (≈ 139 µM) |
| CC(C)CCOc1ccc(C2CC(=O)N(C)C2=O)cc1 (stereo not given) | 40.3 (≈ 146 µM) |
| OC1(C#CCN2CCCC2)c2ccccc2-c2ccccc21 | 11.4 (≈ 39.4 µM) |
| CN1C(C)(C)CC(NC(=O)c2ccco2)CC1(C)C | > 39.7 |
| COc1ccccc1OCC(=O)Nc1cc(S(=O)(=O)N2CCOCC2)ccc1N1CCCCC1 | 3.1 (≈ 6.33 µM) |
| O=C(c1ccccc1Oc1ccc([N+](=O)[O-])cc1)N1CCOCC1 | > 49.2 |
| Cc1c[n+](CC(=O)c2ccccc2)c(C)cn1.[Br-] | 27 |
| Cc1nc(NC(=O)COC(=O)C2CC3CCCC(C2)C3=O)c(Cl)cc1Cl (stereo not given) | > 59.9 |
| N#Cc1ccc(C(=O)NC(=S)N2CCN(C=O)CC2)cc1 | 39 (≈ 129 µM) |
| COc1ccc(N2CCC(CNC(=O)Nc3cccc(OC)c3)C2)cc1 (stereo not given) | 34.5 (≈ 97.1 µM) |
| O=C(c1ccc(F)cc1)C1CCN(C(=O)c2ccc(F)cc2)CC1 | > 49.4 |
| CSc1ncccc1C(=O)Nc1ncc(C)s1 | 5.7 (≈ 21.5 µM) |
| CC(C)c1ccc(NC(=O)CN2CCN(c3ccccn3)CC2)cc1 | 1 (≈ 2.95 µM) |

| Compound | solubility kinetic [µg/mL] |
| --- | --- |
| CCCC/C=C1\CCc2c([nH]c3ccccc23)C1=O | 2 (≈ 7.89 µM) |
| O=C(Cc1cccc2ccccc12)Nc1cc(C(=O)O)cc(C(=O)O)c1 | > 52.4 |
| COc1cc(C(=O)Nc2nc(C)cc(C)n2)cc(OC)c1OC | 45.4 (≈ 143 µM) |
| Cc1nc(C)c(Oc2cccc(C(F)(F)F)c2)c(=O)[nH]1 | 38.2 (≈ 134 µM) |
| Cc1ccc2[nH]c3c(c2c1)SC(C)(C)CC3=O | 0.8 (≈ 3.26 µM) |
| CN(c1ccc(OCC(=O)Nc2cc(Cl)ccc2C(=O)O)cc1)S(=O)(=O)c1ccc(F)cc1 | > 73.9 |
| COc1ccc(C(CC(=O)Nc2nccs2)C(C)C)cc1 (stereo not given) | 33.7 (≈ 111 µM) |
| O=C(NCCO)Nc1ccc(Cl)cc1 | 29 (≈ 135 µM) |
| O=C(NC1CCCCC1)c1cc2cc(Br)ccc2o1 | < 0.7 |
| Cc1cccc(Oc2ccc3c(c2)cc(C(=O)O)n3C)c1 | 40.7 (≈ 145 µM) |
| O=C(NCCc1ccc(F)cc1)Nc1ccccc1 | 6.1 (≈ 23.6 µM) |
| CCOC(=O)c1ccc2[nH]c3c(c2c1)CCCC3O (stereo not given) | > 38.9 |
| COc1cc(C=O)ccc1OCC(=O)N1CCCC1 | > 39.5 |
| COc1nc(OC)nc(N2CCC(C(=O)NC3CC3)CC2)n1 | 37 (≈ 120 µM) |
| Cc1cccc(C(=O)OCC(=O)NC(C)C2CC3CCC2C3)c1O (stereo not given) | 4.1 (≈ 12.4 µM) |
| CC(C)C(O)(C(=O)NNc1ccccc1)C(C)C | > 37.6 |
| CC(=O)/C=C\c1ccc(OC(=O)c2cccnc2)cc1 | 39.6 (≈ 148 µM) |
| CC1CN(CC(=O)Nc2ccc(Br)cn2)CC(C)O1 (stereo not given) | > 49.2 |
| CSc1ccccc1NC(=O)C1=COCCO1 | > 37.7 |
| O=C(Nc1nccs1)c1ccc(Br)cc1 | 2.2 (≈ 7.77 µM) |

Now from value to compound:

| solubility kinetic [µg/mL] | Compound |
| --- | --- |
| 33 (≈ 142 µM) | COc1ccc(C(=O)c2cnc[nH]2)cc1OC |
| > 44.2 | CC(NC(=O)C1CC1)C(c1cccs1)N1CCOCC1 (stereo not given) |
| 8.5 (≈ 28.6 µM) | O=C(Nc1ccc(Cl)c(Cl)c1)Nc1ccccc1O |
| 5.1 (≈ 21.1 µM) | Cc1cc(C)c(C#N)c(Nc2ccccc2F)n1 |
| > 36.2 | CCOc1ccc(S(=O)(=O)NC2CC2)cc1 |
| > 69.1 | Cc1ccc(C(=O)O)cc1NC(=O)C1CCN(S(=O)(=O)c2ccc3c(c2)OCCO3)CC1 |
| > 44.3 | Cc1c(NC(=O)C(C)C)cccc1-c1nc2ncccc2o1 |
| 1.1 (≈ 3.21 µM) | Cc1cc2ccccn2c1C(=O)c1ccc(S(=O)(=O)N(C)C)cc1 |
| > 41.5 | COCCNC(=O)c1ccc(-c2csc(C)n2)cc1 |
| 43.9 (≈ 129 µM) | COc1cc(C(C)=O)ccc1OCC(=O)N1CCc2ccccc2C1 |
| 19.8 (≈ 61.4 µM) | O=C(c1ccc(Br)s1)N1CCc2ccccc2C1 |
| > 43.6 | O=C(NC1CCCN(Cc2ccccc2F)C1)C1CCC1 (stereo not given) |
| 29.4 (≈ 92.9 µM) | O=C(COC(=O)C1CC2C=CC1C2)Nc1ccccc1[N+](=O)[O-] (stereo not given) |
| 27.9 (≈ 113 µM) | CC1CN(Cc2cnc(Cl)s2)CC(C)O1 (stereo not given) |
| > 39 | Cc1ccnc(SCc2ccc(C(=O)O)cc2)n1 |
| < 0.3 | CCCOc1ccc(NC(=O)c2cc3cc(C)ccc3[nH]2)cc1 |
| 34.4 (≈ 134 µM) | COc1cccc(N2C(=O)c3cccnc3C2O)c1 (stereo not given) |
| 11.8 (≈ 36 µM) | Cc1cc(C(=O)Nc2cc(S(C)(=O)=O)ccc2Cl)c(C)o1 |
| > 45.4 | CCCCc1nc2cc(C(=O)N3CCC(O)CC3)ccc2o1 |
